Here are results for seven cell lines from the supplement of paper PMC10307832.

Common to all, as to assay: relative viability (nuclei count vs DMSO), 5 days (fraction); higher = more cells survive
Compound in the experiment “Tipifarnib + Luminespib”: Cn1cncc1[C@@](N)(c1ccc(Cl)cc1)c1ccc2c(c1)c(-c1cccc(Cl)c1)cc(=O)n2C [Tipifarnib] + CCNC(=O)c1noc(-c2cc(C(C)C)c(O)cc2O)c1-c1ccc(CN2CCOCC2)cc1 [Luminespib] (partner 0.01 µM)
The gist of the method: (§1)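 Five library-drug doses in √10 steps were combined with a fixed anchor-drug dose, or a single drug was given alone, by pin tool to lung cancer cell lines in 1536-well plates the day after seeding. Nuclei were stained and counted after 5 days. Relative viability is the nuclei count in treated wells over that in vehicle wells, taken as the median of duplicate plates.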

Compound in the experiment “Tipifarnib + Foretinib”: Cn1cncc1[C@@](N)(c1ccc(Cl)cc1)c1ccc2c(c1)c(-c1cccc(Cl)c1)cc(=O)n2C [Tipifarnib] + COc1cc2c(Oc3ccc(NC(=O)C4(C(=O)Nc5ccc(F)cc5)CC4)cc3F)ccnc2cc1OCCCN1CCOCC1 [Foretinib] (partner 0.25 µM)
A digest of the protocol: as §1

Compound in the experiment “Tipifarnib + Dasatinib”: Cn1cncc1[C@@](N)(c1ccc(Cl)cc1)c1ccc2c(c1)c(-c1cccc(Cl)c1)cc(=O)n2C [Tipifarnib] + Cc1nc(Nc2ncc(C(=O)Nc3c(C)cccc3Cl)s2)cc(N2CCN(CCO)CC2)n1 [Dasatinib] (partner 0.075 µM)
A digest of the protocol:
as §1

Compound in the experiment “Tipifarnib + Decitabine”: Cn1cncc1[C@@](N)(c1ccc(Cl)cc1)c1ccc2c(c1)c(-c1cccc(Cl)c1)cc(=O)n2C [Tipifarnib] + Nc1ncn([C@H]2C[C@H](O)[C@@H](CO)O2)c(=O)n1 [Decitabine] (partner 2 µM)
The gist of the method: as §1

For the cell line PC-3 [JPC-3], the relative viability with Tipifarnib + Luminespib (first compound 0.01 µM) stood at 0.74; with Tipifarnib + Luminespib (first compound 0.03162 µM), 0.694; in the experiment with Tipifarnib + Luminespib (first compound 0.1 µM), 0.66; in the experiment with Tipifarnib + Luminespib (first compound 0.3162 µM), 0.458; with Tipifarnib + Luminespib (first compound 1 µM), 0.409; in the experiment with Tipifarnib + Foretinib (first compound 0.01 µM), 1.06. Also, the relative viability amounted to 1.02 with Tipifarnib + Foretinib (first compound 0.03162 µM); 0.955 with Tipifarnib + Foretinib (first compound 0.1 µM); 0.749 with Tipifarnib + Foretinib (first compound 0.3162 µM); 0.6 with Tipifarnib + Foretinib (first compound 1 µM); 1.01 with Tipifarnib + Dasatinib (first compound 0.01 µM); 0.994 with Tipifarnib + Dasatinib (first compound 0.03162 µM). The relative viability amounted to 0.99 with Tipifarnib + Dasatinib (first compound 0.1 µM); 0.679 in the experiment with Tipifarnib + Dasatinib (first compound 0.3162 µM); 0.532 with Tipifarnib + Dasatinib (first compound 1 µM); 0.866 with Tipifarnib + Decitabine (first compound 0.01 µM); 0.872 with Tipifarnib + Decitabine (first compound 0.03162 µM); 0.828 in the experiment with Tipifarnib + Decitabine (first compound 0.1 µM). In addition, the relative viability with Tipifarnib + Decitabine (first compound 0.3162 µM) is 0.644; with Tipifarnib + Decitabine (first compound 1 µM), 0.648.

For the cell line PC-14, the relative viability with Tipifarnib + Luminespib (first compound 0.01 µM) is 0.221; with Tipifarnib + Luminespib (first compound 0.03162 µM), 0.2; with Tipifarnib + Luminespib (first compound 0.1 µM), 0.149; in the experiment with Tipifarnib + Luminespib (first compound 0.3162 µM), 0.132; with Tipifarnib + Luminespib (first compound 1 µM), 0.131; with Tipifarnib + Foretinib (first compound 0.01 µM), 0.954. For the same cell line, the relative viability with Tipifarnib + Foretinib (first compound 0.03162 µM) amounted to 1.01; with Tipifarnib + Foretinib (first compound 0.1 µM), 0.912; in the experiment with Tipifarnib + Foretinib (first compound 0.3162 µM), 0.602; with Tipifarnib + Foretinib (first compound 1 µM), 0.289; in the experiment with Tipifarnib + Dasatinib (first compound 0.01 µM) it was 0.261; in the experiment with Tipifarnib + Dasatinib (first compound 0.03162 µM) it was 0.206. Moreover, the relative viability with Tipifarnib + Dasatinib (first compound 0.1 µM) was found to be 0.191; in the experiment with Tipifarnib + Dasatinib (first compound 0.3162 µM), 0.128; in the experiment with Tipifarnib + Dasatinib (first compound 1 µM), 0.093; in the experiment with Tipifarnib + Decitabine (first compound 0.01 µM) it was 0.223; with Tipifarnib + Decitabine (first compound 0.03162 µM), 0.183; with Tipifarnib + Decitabine (first compound 0.1 µM) it was 0.221. The relative viability amounted to 0.189 with Tipifarnib + Decitabine (first compound 0.3162 µM) and 0.145 in the experiment with Tipifarnib + Decitabine (first compound 1 µM).

For the cell line RERF-LC-KJ, the relative viability was 1.2 with Tipifarnib + Luminespib (first compound 0.01 µM); 0.924 with Tipifarnib + Luminespib (first compound 0.03162 µM); 1.07 with Tipifarnib + Luminespib (first compound 0.1 µM); 0.605 with Tipifarnib + Luminespib (first compound 0.3162 µM); 0.654 in the experiment with Tipifarnib + Luminespib (first compound 1 µM); 0.917 with Tipifarnib + Foretinib (first compound 0.01 µM). Also, the relative viability was found to be 0.965 in the experiment with Tipifarnib + Foretinib (first compound 0.03162 µM); 0.799 in the experiment with Tipifarnib + Foretinib (first compound 0.1 µM); 0.773 with Tipifarnib + Foretinib (first compound 0.3162 µM); 0.393 with Tipifarnib + Foretinib (first compound 1 µM); 0.884 in the experiment with Tipifarnib + Dasatinib (first compound 0.01 µM); 0.778 with Tipifarnib + Dasatinib (first compound 0.03162 µM). Besides, the relative viability in the experiment with Tipifarnib + Dasatinib (first compound 0.1 µM) came out at 0.724; in the experiment with Tipifarnib + Dasatinib (first compound 0.3162 µM) it was 0.535; in the experiment with Tipifarnib + Dasatinib (first compound 1 µM), 0.574; in the experiment with Tipifarnib + Decitabine (first compound 0.01 µM), 0.848; in the experiment with Tipifarnib + Decitabine (first compound 0.03162 µM), 0.691; in the experiment with Tipifarnib + Decitabine (first compound 0.1 µM), 0.733. In addition, the relative viability was found to be 0.451 in the experiment with Tipifarnib + Decitabine (first compound 0.3162 µM) and 0.478 with Tipifarnib + Decitabine (first compound 1 µM).

In the case of SK-LU-1, the relative viability with Tipifarnib + Luminespib (first compound 0.01 µM) was 0.252; with Tipifarnib + Luminespib (first compound 0.03162 µM) it was 0.212; with Tipifarnib + Luminespib (first compound 0.1 µM), 0.208; with Tipifarnib + Luminespib (first compound 0.3162 µM), 0.236; in the experiment with Tipifarnib + Luminespib (first compound 1 µM), 0.193; with Tipifarnib + Foretinib (first compound 0.01 µM), 0.877. Moreover, the relative viability was 0.723 with Tipifarnib + Foretinib (first compound 0.03162 µM); 0.542 with Tipifarnib + Foretinib (first compound 0.1 µM); 0.481 with Tipifarnib + Foretinib (first compound 0.3162 µM); 0.477 with Tipifarnib + Foretinib (first compound 1 µM); 0.16 with Tipifarnib + Dasatinib (first compound 0.01 µM); 0.152 in the experiment with Tipifarnib + Dasatinib (first compound 0.03162 µM). Besides, the relative viability with Tipifarnib + Dasatinib (first compound 0.1 µM) is 0.156; with Tipifarnib + Dasatinib (first compound 0.3162 µM), 0.14; with Tipifarnib + Dasatinib (first compound 1 µM), 0.133; with Tipifarnib + Decitabine (first compound 0.01 µM) it was 0.728; in the experiment with Tipifarnib + Decitabine (first compound 0.03162 µM), 0.627; with Tipifarnib + Decitabine (first compound 0.1 µM), 0.706. In addition, the relative viability is 0.594 with Tipifarnib + Decitabine (first compound 0.3162 µM) and 0.59 with Tipifarnib + Decitabine (first compound 1 µM).

Turning to SK-MES-1, the relative viability is 0.679 with Tipifarnib + Luminespib (first compound 0.01 µM); 0.606 with Tipifarnib + Luminespib (first compound 0.03162 µM); 0.675 in the experiment with Tipifarnib + Luminespib (first compound 0.1 µM); 0.373 in the experiment with Tipifarnib + Luminespib (first compound 0.3162 µM); 0.348 in the experiment with Tipifarnib + Luminespib (first compound 1 µM); 0.916 with Tipifarnib + Foretinib (first compound 0.01 µM). Also, the relative viability stood at 0.869 with Tipifarnib + Foretinib (first compound 0.03162 µM); 0.905 in the experiment with Tipifarnib + Foretinib (first compound 0.1 µM); 0.681 in the experiment with Tipifarnib + Foretinib (first compound 0.3162 µM); 0.542 with Tipifarnib + Foretinib (first compound 1 µM); 0.44 in the experiment with Tipifarnib + Dasatinib (first compound 0.01 µM); 0.341 in the experiment with Tipifarnib + Dasatinib (first compound 0.03162 µM). Further, the relative viability in the experiment with Tipifarnib + Dasatinib (first compound 0.1 µM) turned out to be 0.337; with Tipifarnib + Dasatinib (first compound 0.3162 µM) it was 0.18; with Tipifarnib + Dasatinib (first compound 1 µM), 0.249; with Tipifarnib + Decitabine (first compound 0.01 µM), 0.465; with Tipifarnib + Decitabine (first compound 0.03162 µM), 0.336; with Tipifarnib + Decitabine (first compound 0.1 µM), 0.35. Also, the relative viability turned out to be 0.421 with Tipifarnib + Decitabine (first compound 0.3162 µM) and 0.33 with Tipifarnib + Decitabine (first compound 1 µM).

Take SW 1573: the relative viability with Tipifarnib + Luminespib (first compound 0.01 µM) worked out at 0.208; with Tipifarnib + Luminespib (first compound 0.03162 µM), 0.164; with Tipifarnib + Luminespib (first compound 0.1 µM) it was 0.239; with Tipifarnib + Luminespib (first compound 0.3162 µM), 0.166; with Tipifarnib + Luminespib (first compound 1 µM), 0.187; with Tipifarnib + Foretinib (first compound 0.01 µM), 1.12. Also, the relative viability was determined as 0.873 in the experiment with Tipifarnib + Foretinib (first compound 0.03162 µM); 0.657 with Tipifarnib + Foretinib (first compound 0.1 µM); 0.498 with Tipifarnib + Foretinib (first compound 0.3162 µM); 0.173 with Tipifarnib + Foretinib (first compound 1 µM); 0.379 with Tipifarnib + Dasatinib (first compound 0.01 µM); 0.33 in the experiment with Tipifarnib + Dasatinib (first compound 0.03162 µM). The relative viability with Tipifarnib + Dasatinib (first compound 0.1 µM) stood at 0.297; in the experiment with Tipifarnib + Dasatinib (first compound 0.3162 µM), 0.217; with Tipifarnib + Dasatinib (first compound 1 µM) it was 0.198; with Tipifarnib + Decitabine (first compound 0.01 µM), 0.6; in the experiment with Tipifarnib + Decitabine (first compound 0.03162 µM) it was 0.411; with Tipifarnib + Decitabine (first compound 0.1 µM) it was 0.322. Further, the relative viability amounted to 0.33 with Tipifarnib + Decitabine (first compound 0.3162 µM) and 0.268 with Tipifarnib + Decitabine (first compound 1 µM).

UMC-11: the relative viability with Tipifarnib + Luminespib (first compound 0.01 µM) amounted to 0.99; with Tipifarnib + Luminespib (first compound 0.03162 µM), 0.845; in the experiment with Tipifarnib + Luminespib (first compound 0.1 µM), 0.711; in the experiment with Tipifarnib + Luminespib (first compound 0.3162 µM), 0.665; with Tipifarnib + Luminespib (first compound 1 µM), 0.621; with Tipifarnib + Foretinib (first compound 0.01 µM), 0.856. The relative viability with Tipifarnib + Foretinib (first compound 0.03162 µM) was 0.725; in the experiment with Tipifarnib + Foretinib (first compound 0.1 µM), 0.612; with Tipifarnib + Foretinib (first compound 0.3162 µM), 0.616; in the experiment with Tipifarnib + Foretinib (first compound 1 µM), 0.578; with Tipifarnib + Dasatinib (first compound 0.01 µM), 0.419; with Tipifarnib + Dasatinib (first compound 0.03162 µM) it was 0.441. In addition, the relative viability was found to be 0.422 with Tipifarnib + Dasatinib (first compound 0.1 µM); 0.357 with Tipifarnib + Dasatinib (first compound 0.3162 µM); 0.29 with Tipifarnib + Dasatinib (first compound 1 µM); 0.569 with Tipifarnib + Decitabine (first compound 0.01 µM); 0.53 with Tipifarnib + Decitabine (first compound 0.03162 µM); 0.524 in the experiment with Tipifarnib + Decitabine (first compound 0.1 µM). For the same cell line, the figures for the relative viability in the experiment with Tipifarnib + Decitabine (first compound 0.3162 µM) and with Tipifarnib + Decitabine (first compound 1 µM) were 0.322 and 0.405, respectively.
